Test results published in patent US11464796B2, “Nicotinamide mononucleotide derivatives and their uses” (Metro International Biotech, LLC, priority 2015, dated 2022).
Counter-ions that a name gives are not always drawn.

How the values were obtained:
[1] = tested on: NAD+ levels in skeletal muscle; assay: NAD+ level in skeletal muscle of mice after a single oral dose (LC/MS), ratio to vehicle control; type: in vivo; settings: soleus skeletal muscle, single oral gavage in PBS, generally 500 mg/ml (in some cases 250 mg/kg or ethanol/PBS/PEG400), fasted male C57/BL6 mice; for ratio of mean NAD+ concentration in treated mice compared to vehicle control mice, 4 hr skeletal: 4 hr post-dose; for ratio of mean NAD+ concentration in treated mice compared to vehicle control mice, 8 hr skeletal: 8 hr post-dose; for ratio of mean NAD+ concentration in treated mice compared to vehicle control mice, 24 hr skeletal: 24 hr post-dose
Method: (§1) As the compounds disclosed herein can act as prodrugs for NMN, their biological activity was assessed in vivo by measuring the ability to elevate NAD+ levels in liver and skeletal muscle. These tissues were selected for pharmacodynamics studies due to their relevance for the treatment of metabolic diseases. In general, C57/BL6 mice were fasted from 16 hours, then administered a […] oral dose of a disclosed compound in PBS buffer by oral gavage. In some cases, the dose was 250 mg/kg or in an alternate vehicle: ethanol/PBS/PEG400 (10/30/60). After dosing, the mice were sacrificed at pre-set time points after dosing (generally 4, 8 and 24 hours). The liver and skeletal tissues were removed and flash frozen. After some period of frozen storage, tissue homogenates were prepared. The level of NAD+ was quantified using LC/MS methods.
(§2) For bioanalysis, a method of standard addition was used to quantify the NAD. Each homogenate was divided and certain aliquots had known concentrations of exogenous NAD added. The NAD present in the original sample was then calculated by linear regression. Data are presented as a ratio of mean NAD concentration in treated mouse tissues to mean NAD concentration in the vehicle control group tissues at the paired time points.
(§3) Mixtures of compound and PBS, pH 7 were formulated ˜1 hour before dosing and remained stirring until dose completion. Residual formulated test materials were stored at −20±5° C. until discarded. Naïve male C57/BL6 mice at ˜25 g at dose initiation, age as appropriate for weight were assigned to dose groups of six animals per dose. Dosing treatments were administered via a single oral gavage dose (PO) The dose volume for each animal (5 mL/kg) was based on the most recent body measurements taken the morning of dosing. Animals were fasted at least 16 hrs prior to dose, with food returned at least 4 hours post dose.
(§4) Liver and skeletal muscle were collected and analyzed for nicotinamide adenine dinucleotide (NAD) at 0, 4, 8, and 24 hours post-dose. For each mouse, the entire liver was removed, rinsed with saline, blotted dry and frozen at −70° C. to store for NAD concentration analysis. Also, the soleus skeletal muscle was removed from the gastrocnemius, rinsed with saline, blotted dry and frozen at −70° C. to store for NAD concentration analysis.
(§5) • 1. Add 5× (tissue wt.*5)mL 0.1M ZnSO4 into all tubes. • 2. Add 5× (tissue wt*5)mL Methanol into all tubes. • 3. Homogenize each sample until completely liquid. • 4. Vortex each sample. Tissue Extraction Procedure • 1. On ice, aliquot 20 μL of standards, control blanks, and matrix blanks into a 96-well plate. • 2. Aliquot 20 μL of sample into sample wells. • 3. Add 1004, of IS in 80:20 Methanol:water into each well, except blanks add 100 μL of blank 80:20 Methanol:Water. • 4. Cover plate and vortex samples. Centrifuge for 10 minutes at 3300 rpm. • 5. Transfer 80 μL of supernatant into a clean 96-well plate. • 6. Add 80 μL of LC-MS water to all wells. • 7. Cover and vortex. The concentration of NAD+ in the tissues was determined by LC/MS. The conditions are as follows:
(§6) The ratio of mean NAD+ concentration in the liver and skeletal tissues of treated mice compared to vehicle control mice are given in Table 5. The data is given for the 4, 8, and 24 hour time points.

NAD+ levels in liver = assay: NAD+ level in liver of mice after a single oral dose (LC/MS), ratio to vehicle control; type: in vivo; settings: single oral gavage in PBS, generally 500 mg/ml (in some cases 250 mg/kg or ethanol/PBS/PEG400), fasted male C57/BL6 mice; for ratio of mean NAD+ concentration in treated mice compared to vehicle control mice, 4 hr liver: 4 hr post-dose; for ratio of mean NAD+ concentration in treated mice compared to vehicle control mice, 8 hr liver: 8 hr post-dose; for ratio of mean NAD+ concentration in treated mice compared to vehicle control mice, 24 hr liver: 24 hr post-dose
Method: as §1, §2, §3, §4, §5, §6

| SMILES | ratio of mean NAD+ concentration in treated mice compared to vehicle control mice, 4 hr skeletal [1] | ratio of mean NAD+ concentration in treated mice compared to vehicle control mice, 8 hr skeletal [1] | ratio of mean NAD+ concentration in treated mice compared to vehicle control mice, 24 hr skeletal [1] | ratio of mean NAD+ concentration in treated mice compared to vehicle control mice, 4 hr liver (NAD+ levels in liver) | ratio of mean NAD+ concentration in treated mice compared to vehicle control mice, 8 hr liver (NAD+ levels in liver) | ratio of mean NAD+ concentration in treated mice compared to vehicle control mice, 24 hr liver (NAD+ levels in liver) |
| --- | --- | --- | --- | --- | --- | --- |
| CCC(CC)COC(=O)C(C)NP(=O)(OCC1O[C@@H]([n+]2cccc(C(N)=O)c2)[C@H](O)[C@@H]1O)Oc1ccccc1 (stereo partly drawn) [Compound 9, 2-Ethylbutyl ((((3S,4R,5R)-5-(3-carbamoyl-1λ^4-pyridin-1-yl)-3,4-dihydroxytetrahydrofuran-2-yl)methoxy)(phenoxy)phosphoryl)alaninate Trifluoroacetate Salt] | 1.88 | 1.34 | 0.96 | 0.8 | 0.8 | 1.3 |
| CC(C)OC(=O)[C@H](C)NP(=O)(OCC1O[C@@H]([n+]2cccc(C(N)=O)c2)[C@H](O)[C@@H]1O)Oc1ccccc1 (stereo partly drawn) [Compound 4, Isopropyl ((((3S,4R,5R)-5-(3-carbamoyl-1λ4-pyridin-1-yl)-3,4-dihydroxytetrahydrofuran-2-yl)methoxy)(phenoxy)phosphoryl)-L-alaninate Trifluoroacetate Salt] | 0.9 | 1.4 | 1.1 | 1.0 | 1.7 | 1.8 |
| NC(=O)c1ccc[n+]([C@@H]2OC(COP3(=O)OCCC(c4cc(F)cc(F)c4)O3)[C@@H](O)[C@H]2O)c1.O=C([O-])C(F)(F)F (stereo partly drawn) [Compound 2, 1-((2R,3R,4S)-5-(((4-(3,5-Difluorophenyl)-2-oxido-1,3,2-dioxaphosphinan-2-yl)oxy)methyl)-3,4-dihydroxytetrahydrofuran-2-yl)-1λ^4-pyridine-3-carboxamide Trifluoroacetate Salt] | 0.9 | 1.0 | 1.4 | 2.0 | 1.6 | 1.8 |
| CC(C)(C)C(=O)SCCOP(=O)(NCc1ccccc1)OCC1OC([n+]2cccc(C(N)=O)c2)C(O)C1O (stereo not drawn) [Compound 6, 1-(5-((((Benzylamino)(2-(pivaloylthio)ethoxy)phosphoryl)oxy)methyl)-3,4-dihydroxytetrahydrofuran-2-yl)-3-carbamoylpyridin-1-ium Trifluoroacetate Salt] | 1.3 | 1.7 | 2.6 | 4.3 | 6.6 | 3.5 |
| CC(NP(=O)(OCC1O[C@@H]([n+]2cccc(C(N)=O)c2)[C@H](O)[C@@H]1O)Oc1cccc2ccccc12)C(=O)OCc1ccccc1 (stereo partly drawn) [Compound 8, 1-((2R,3R,4S)-5-(((((1-(Benzyloxy)-1-oxopropan-2-yl)amino)(naphthalen-1-yloxy)phosphoryl)oxy)methyl)-3,4-dihydroxytetrahydrofuran-2-yl)-3-carbamoylpyridin-1-ium Trifluoroacetate Salt] | 1.0 | 0.8 | 0.8 | 1.2 | 1.0 | 0.9 |
| CCOP(=O)(OCC)OCC1OC([n+]2cccc(C(N)=O)c2)C(O)C1O (stereo not drawn) [Compound 19, 3-Carbamoyl-1-(5-(((diethoxyphosphoryl)oxy)methyl)-3,4-dihydroxytetrahydrofuran-2-yl)pyridin-1-ium Chloride] | 0.8 | 1.2 | 0.1 | 1 | 1 | 1 |
| CCCCCCCCCCCCCCCOCCCOP(=O)(OC)OCC1OC([n+]2cccc(C(N)=O)c2)C(O)C1O (stereo not drawn) [Compound 21, 3-Carbamoyl-1-(3,4-dihydroxy-5-(((methoxy(3-(pentadecyloxy)propoxy)phosphoryl)oxy)methyl)tetrahydrofuran-2-yl)pyridin-1-ium Trifluoroacetate Salt] | 1.3 | 2.4 | 3.4 | 2.2 | 2.1 | 1.7 |
